Experimental data: patent publication US6077509A, “Peptide fragments of myelin basic protein” (Autoimmune, Inc., priority 1995, dated 2000)

Legend:
[1] = tested on: actively induced EAE; assay: Actively induced EAE (MBP/CFA immunization), clinical score; assay type: in vivo, Lewis rats; settings: for suppression of EAE via IV tolerization: intravenously prior to immunization for actively induced disease (FIG. 7)
[2] = tested on: short term T-cell lines from peripheral blood mononuclear cells; assay: Proliferation assay of short term T-cell lines for reactivity to MBP, PLP and overlapping MBP peptides; assay type: cell-based, human; settings: for mean frequency of T-cell lines selectively reactive to the peptide, MS vs controls (FIG. 1): MS patients compared with combined controls
Protocol: A rapid T-cell cloning technique was used to examine whether there were immunodominant epitopes on human MBP reactive with Class II MHC phenotypes and the frequency of such reactivity. A total of 15,824 short term T-cell lines were generated from 51 human subjects by culturing peripheral blood mononuclear cells ([…]) with purified MBP (100 μg) followed 3 days later, and then every 3-4 days, by the addition of interleukin-2 (IL-2; from ABI, Columbia, Md.) and 2 units recombinant interleukin-4 (IL-4; Genzyme, Boston, Mass.). On Day 13 of culture, an aliquot from each line was tested for reactivity to MBP using the following proliferation assay: T-cell clones (1×10^5 cells/well) were plated in triplicate and cocultured with appropriate stimuli (i.e. 100 μg whole MBP or 5% IL-2) for 72 hours at 37° C., 90% humidity, 5% CO2, in 96 well flat bottomed microtiter plates (Costar). The cells were pulsed with 2 μCi [^3 H]TdR (2 Ci/mmole, New England Nuclear, Boston, Mass.) for the last 18 hours of culture. APCs were prepared by pulsing human Epstein-Barrvirus transformed human B-cells (the virus being commercially available from ATCC) or L-cells which are mouse cells transfected with human DR2 (L-cells are commercially available from ATCC under accession No. ATCC-CCL1 and can be transfected according to the method of Wilkinson, D. et al, J. Exp. Med., 1988, 167:1442-1458 using-DNA encoding DR2 as per Wu, S. et al J. Immunol., 1987, 138:2953). B-cells or L-cells were used at 1×10^6 cells/well in complete media either in the presence or absence of 40 pM MBP or phospholipid protein (PLP) for 2 hours at 37° C., washing twice with 4° C. […]
Subjects with other central nervous system diseases had the following diagnoses: 1-3 weeks after either cerebrovascular accident (n=4), brain trauma with CNS hemorrhage (n=4), or metastatic brain tumor (n=2). […] In addition, the frequency of MBP and PLP-reactive lines was calculated separately for each subject by dividing the number of MBP-reactive lines by the total number of lines generated and the mean values +/- SEM are given. […]

## histone
[1]; IV injection before immunization with MBP/CFA, clinical scale 0-5
  mean maximal score: 3.0±0.3

## FKGVDAQGTLSKIFKLGGRD [143-168, human MBP amino acid residues 143-168]
[2]
  mean frequency of T-cell lines selectively reactive to the peptide, MS vs controls (FIG. 1): both MS and control subjects showed high frequencies

## 131-150: Control guinea pig MBP peptide 131-150 (DYKSKGFKGAHDAQGTLSKI; UniProt P25188 131-150, looked up, fragment)
[1]
  suppression of EAE via IV tolerization: did not suppress
[1]; orally prior to immunization for actively induced disease (FIG. 7)
  suppression of EAE via oral tolerization: did not suppress

## HHPARTAHYGSLPQKSEGRT [61-82]
[2]
  mean frequency of T-cell lines selectively reactive to the peptide, MS vs controls (FIG. 1): Significant but less striking increases in reactivity

B1: proteolipid protein (protein, UniProt P60201 2-277, looked up)
Myelin proteolipid protein: GLLECCARCLVGAPFASLVATGLCFFGVALFCGCGHEALTGTEKLIETYFSKNYQDYEYLINVIHAFQYVIYGTASFFFLYGALLLAEGFYTTGAVRQIFGDYKTTICGKGLSATVTGGQKGRGSRGQHQAHSLERVCHCLGKWLGHPDKFVGITYALTVVWLLVFACSAVPVYIYFNTWTTCQSIAFPSKTSASIGSLCADARMYGVLPWNAFPGKVCGSNLLSICKTAEFQMTFHLFIAAFVGAAATLVSLLTFMIAATYNFAVLKLMGRGTKF
[2]; other neurological disease (n = 10), mean +/- SEM
  MEAN FREQUENCY OF Ag REACTIVE LINES: 0.90 ± 0.62

B2: myelin basic protein (protein, UniProt P25188 1-167, looked up)
Myelin basic protein: ASQKRPSQRHGSKYLATASTMDHARHGFLPRHRDTGILDSIGRFFGSDRAAPKRGSGKDSHHAARTTHYGSLPQKSQRSQDENPVVHFFKNIVTPRTPPPSQGKGRGLSLSRFSWGAEGQKPGFGYGGRADYKSKGFKGAHDAQGTLSKIFKLGGRDSRSGSPMARR
[1]
  suppression of EAE via IV tolerization: suppression of EAE
